Assay results reported in patent US8399452B2, “Dibenzo[b,f][1,4]oxazepin-11-yl-N-hydroxybenzamides as HDAC inhibitors” (Methylgene Inc., priority 2006, dated 2013).

biological target: histone deacetylase (HDAC Enzyme); experiment: Inhibition of Histone Deacetylase Enzymatic Activity (Boc-Lys(Ac)-AMC, Fluor-de-Lys developer); assay type: biochemical; conditions: Table 9; read-out: HDAC Inhibition (IC50 μM) HDAC Enzyme
Procedure: The following protocol is used to assay the compounds of the invention.
The mixture is pre-incubated for 5 minutes at room temperature. The reaction is started by bringing the temperature to 37° C. and adding 16 μl substrate. Total reaction volume is 50 μl.
In the Tables 8, 9 and 10, A≦[…]<B≦0.1 μM; 0.1 μM<C≦1 μM; and 1 μM<D≦10 μM.

IC50, 0.05 to 0.1 µM:
O=C(NO)c1cnc(N2C[C@@H]3C[C@H]2CN3C(=O)N2CCCC2)nc1 [N-hydroxy-2-((1S,4S)-5-(pyrrolidine-1-carbonyl)-2,5-diazabicyclo[2.2.1]heptan-2-yl)pyrimidine-5-carboxamide], Cc1ccccc1N1C[C@@H]2C[C@H]1CN2c1ncc(C(=O)NO)cn1 [N-hydroxy-2-((1S,4S)-5-o-tolyl-2,5-diazabicyclo[2.2.1]heptan-2-yl)pyrimidine-5-carboxamide], O=C(NO)c1cnc(N2C[C@@H]3C[C@H]2CN3c2ccccc2)nc1 [N-hydroxy-2-((1S,4S)-5-phenyl-2,5-diazabicyclo[2.2.1]heptan-2-yl)pyrimidine-5-carboxamide]

IC50, < 0.05 µM:
O=C(NO)c1cnc(N2C[C@@H]3C[C@H]2CN3c2ccc(C(F)(F)F)cc2)nc1 [N-hydroxy-2-((1S,4S)-5-(4-(trifluoromethyl)phenyl)-2,5-diazabicyclo[2.2.1]heptan-2-yl)pyrimidine-5-carboxamide], O=C(NO)c1cnc(N2C[C@@H]3C[C@H]2CN3c2cc(C(F)(F)F)ccn2)nc1 [N-hydroxy-2-((1S,4S)-5-(4-(trifluoromethyl)pyridin-2-yl)-2,5-diazabicyclo[2.2.1]heptan-2-yl)pyrimidine-5-carboxamide], O=C(NO)c1cnc(N2C[C@@H]3C[C@H]2CN3c2nccc(C(F)(F)F)n2)nc1 [N-hydroxy-2-((1S,4S)-5-(4-(trifluoromethyl)pyrimidin-2-yl)-2,5-diazabicyclo[2.2.1]heptan-2-yl)pyrimidine-5-carboxamide], O=C(NO)c1cnc(N2C[C@@H]3C[C@H]2CN3c2cncc(C(F)(F)F)c2)nc1 [N-hydroxy-2-((1S,4S)-5-(5-(trifluoromethyl)pyridin-3-yl)-2,5-diazabicyclo[2.2.1]heptan-2-yl)pyrimidine-5-carboxamide], O=C(NO)c1cnc(N2C[C@@H]3C[C@H]2CN3c2cccc(C(F)(F)F)n2)nc1 [N-hydroxy-2-((1S,4S)-5-(6-(trifluoromethyl)pyridin-2-yl)-2,5-diazabicyclo[2.2.1]heptan-2-yl)pyrimidine-5-carboxamide], Cc1cccc(N2C[C@@H]3C[C@H]2CN3c2ncc(C(=O)NO)cn2)c1 [N-hydroxy-2-((1S,4S)-5-m-tolyl-2,5-diazabicyclo[2.2.1]heptan-2-yl)pyrimidine-5-carboxamide], Cc1ccc(N2C[C@@H]3C[C@H]2CN3c2ncc(C(=O)NO)cn2)cc1 [N-hydroxy-2-((1S,4S)-5-p-tolyl-2,5-diazabicyclo[2.2.1]heptan-2-yl)pyrimidine-5-carboxamide], Cc1ccc(N2CC3CC2CN3c2ccc(C(=O)NO)cn2)cc1 (stereo not shown) [N-hydroxy-6-(5-p-tolyl-2,5-diazabicyclo[2.2.1]heptan-2-yl)nicotinamide]

IC50, 1 to 10 µM:
O=C(NO)c1ccc(N2C[C@H]3C[C@@H]2CN3c2cc(C(F)(F)F)ccn2)cc1 [N-hydroxy-4-((1R,4R)-5-(4-(trifluoromethyl)pyridin-2-yl)-2,5-diazabicyclo[2.2.1]heptan-2-yl)benzamide]

IC50, 0.1 to 1 µM:
COc1cccc(N2CC3CC2CN3c2ccc(C(=O)NO)cc2)c1 (stereo not shown) [N-hydroxy-4-(5-(3-methoxyphenyl)-2,5-diazabicyclo[2.2.1]heptan-2-yl)benzamide], Cc1cccc(N2CC3CC2CN3c2ccc(C(=O)NO)cc2)c1 (stereo not shown) [N-hydroxy-4-(5-m-tolyl-2,5-diazabicyclo[2.2.1]heptan-2-yl)benzamide], Cc1cccc(N2C[C@H]3C[C@@H]2CN3c2ccc(C(=O)NO)cc2)c1 [N-hydroxy-4-((1R,4R)-5-m-tolyl-2,5-diazabicyclo[2.2.1]heptan-2-yl)benzamide], O=C(NO)c1ccc(N2C[C@@H]3C[C@H]2CN3c2cccc(C(F)(F)F)c2)cc1 [N-hydroxy-4-((1S,4S)-5-(3-(trifluoromethyl)phenyl)-2,5-diazabicyclo[2.2.1]heptan-2-yl)benzamide], O=C(NO)c1ccc(N2C[C@@H]3C[C@H]2CN3c2cc(C(F)(F)F)ccn2)cc1 [N-hydroxy-4-((1S,4S)-5-(4-(trifluoromethyl)pyridin-2-yl)-2,5-diazabicyclo[2.2.1]heptan-2-yl)benzamide], Cc1ccc(N2C[C@@H]3C[C@H]2CN3c2ccc(C(=O)NO)cc2)cc1 [N-hydroxy-4-((1S,4S)-5-p-tolyl-2,5-diazabicyclo[2.2.1]heptan-2-yl)benzamide], O=C(NO)c1cnc(N2C[C@@H]3C[C@H]2CN3c2cccc(C(F)(F)F)c2)cn1 [N-hydroxy-5-((1S,4S)-5-(3-(trifluoromethyl)phenyl)-2,5-diazabicyclo[2.2.1]heptan-2-yl)pyrazine-2-carboxamide], O=C(NO)c1ccc(N2C[C@@H]3C[C@H]2CN3c2cccc(C(F)(F)F)c2)nn1 [N-hydroxy-6-((1S,4S)-5-(3-(trifluoromethyl)phenyl)-2,5-diazabicyclo[2.2.1]heptan-2-yl)pyridazine-3-carboxamide]

same assay, conditions: Table 10; read-out: HDAC Inhibition (IC50 μM) HDAC Enzyme

IC50, 0.1 to 1 µM:
O=C(CCc1ccc(CN2C(=O)c3ccccc3Oc3ccccc32)cc1)NO [N-hydroxy-3-(4-((11-oxodibenzo[b,f][1,4]oxazepin-10(11H)-yl)methyl)phenyl)propanamide], O=C(NO)c1ccc(N2C(=O)c3ccccc3Oc3ccccc32)cc1 [N-hydroxy-4-(11-oxodibenzo[b,f][1,4]oxazepin-10(11H)-yl)benzamide], O=C(NO)c1ccc(Cn2c(-c3ccccc3)cc3ccccc32)cc1 [N-hydroxy-4-((2-phenyl-1H-indol-1-yl)methyl)benzamide], O=C(NO)c1ccc(CN2C(=O)c3ccccc3CCc3ccccc32)cc1 [N-hydroxy-4-((6-oxo-11,12-dihydrodibenzo[b,f]azocin-5(6H)-yl)methyl)benzamide], (Z)-N-(5H-dibenzo[b,f]azepin-5-yl)methyl)benzyl)-N-hydroxyformamide

IC50, 1 to 10 µM:
CN1CCc2[nH]c3ccc(C(=O)NO)cc3c2C1 [N-hydroxy-2-methyl-2,3,4,5-tetrahydro-1H-pyrido[4,3-b]indole-8-carboxamide], O=C(NO)c1cc2c(cn1)[nH]c1ccccc12 [N-hydroxy-9H-pyrido[3,4-b]indole-3-carboxamide]

IC50, 0.05 to 0.1 µM:
O=C(NO)c1ccc(CCCN2C(=O)c3ccccc3Oc3ccccc32)cc1 [N-hydroxy-4-(3-(11-oxodibenzo[b,f][1,4]oxazepin-10(11H)-yl)propyl)benzamide], O=C(CCCCCCCN1C(=O)c2ccccc2Oc2ccccc21)NO [N-hydroxy-8-(11-oxodibenzo[b,f][1,4]oxazepin-10(11H)-yl)octanamide], O=C(NO)c1cnc(N2CCCN(C(=O)OCc3ccccc3)CC2)nc1 [benzyl 4-(5-(hydroxycarbamoyl)pyrimidin-2-yl)-1,4-diazepane-1-carboxylate]

IC50, < 0.05 µM:
O=C(NO)c1ccc(C#CCN2C(=O)c3ccccc3Oc3ccccc32)cc1 [N-hydroxy-4-(3-(11-oxodibenzo[b,f][1,4]oxazepin-10(11H)-yl)prop-1-ynyl)benzamide], O=C(NO)c1ccc(Cn2c(=O)c3ccccc3c3ccccc32)cc1 [N-hydroxy-4-((6-oxophenanthridin-5(6H)-yl)methyl)benzamide], O=C(NO)c1ccc(CN2C(=O)c3ccccc3Oc3ccccc32)cc1 [N-hydroxy-4-((11-oxodibenzo[b,f][1,4]oxazepin-10(11H)-yl)methyl)benzamide], O=C(CCCCCN1C(=O)c2ccccc2Oc2ccccc21)NO [N-hydroxy-6-(11-oxodibenzo[b,f][1,4]oxazepin-10(11H)-yl)hexanamide], O=C(CCCCCCn1c(=O)c2ccccc2c2ccccc21)NO [N-hydroxy-7-(6-oxophenanthridin-5(6H)-yl)heptanamide], O=C(CCCCCCN1C(=O)c2ccccc2Oc2ccccc21)NO [N-hydroxy-7-(11-oxodibenzo[b,f][1,4]oxazepin-10(11H)-yl)heptanamide], O=C(CCCCCCN1C(=O)c2ccccc2Sc2ccccc21)NO [N-hydroxy-7-(11-oxodibenzo[b,f][1,4]thiazepin-10(11H)-yl)heptanamide], O=C(CCCCCCOc1nc2ccccc2c2ccccc12)NO [N-hydroxy-7-(phenanthridin-6-yloxy)heptanamide], O=CN(O)CCCCCCN1C(=O)c2ccccc2Oc2ccccc21 [N-hydroxy-N-(6-(11-oxodibenzo[b,f][1,4]oxazepin-10(11H)-yl)hexyl)formamide]

same assay, conditions: read-out: HDAC Inhibtion (IC50 μM) HDAC Enzyme

IC50, 0.1 to 1 µM:
CN1c2ccccc2Oc2ccccc2C1c1ccc(C(=O)NO)cc1 (stereo not shown) [N-hydroxy-4-(10-methyl-10,11-dihydrodibenzo[b,f][1,4]oxazepin-11-yl)benzamide]
